Source: patent US6841718B2 (priority 2000, dated 2005)

System: bacteria, yeast, algal and fungal spores, and invertebrate larvae
Test: attachment of organisms

SMILES: O=C(O)C=Cc1ccc(OS(=O)(=O)O)cc1 [Zosteric acid, para-(sulphooxy) cinnamic acid]
- attachment of a wide range of organisms: inhibits attachment
